Measurements: patent US20240352309A1, “FLUORESCENT DYE, AND PREPARATION METHOD THEREFOR AND USE THEREOF” (FLUORESCENCE DIAGNOSIS (SHANGHAI) BIOTECH COMPANY LTD., priority 2021, published 2024)

What was measured:
[1] = tested on: RNA aptamer in stable cell line (293T/17); assay: Flow detection of cells expressing RNA aptamer (Test Example 6); type: cell-based; details: 1 μM dye in PBS, 5 minutes
[2] = Emission spectra in glycerol, wavelength adjustment (Test Example 3); type: physicochemical; details: 1×10^−5 M, dye13 vs dye12, ring sulfur turned into nitrogen
Protocol: The dye5, dye6, dye11, dye12, dye13, dye14, dye39 and dye42 were added into glycerol to prepare a solution with a final concentration of 1×10^−5 M, fluorescent dyes were excited with corresponding maximum excitation wavelength so as to obtain the emission spectra, and some of the emission spectra were normalized.

[3] = Fluorescence emission in glycerol and methanol (Test Example 1); type: physicochemical
Protocol: The fluorescent dye (molecular rotors) prepared in Examples dye1-dye42 were dissolved in DMSO each to prepare a mother solution with a concentration of 1×10^−2 M, and each mother solution was added to glycerol and methanol respectively and was mixed well, and a solution with a final concentration of 1×10^−5 M was prepared.

CN(CCO)c1cc2sc(/C=C3\NC(=S)NC3=O)cc2s1 [dye13]
dye background fluorescence before binding [1]: very low | fluorescence after binding to RNA aptamer in cells [1]: notably activated | shortening of emission wavelength [2]: 20 nm | Fluorescence intensity ratio in glycerol and methanol ([3]; 1×10^−5 M in glycerol vs methanol, maximum excitation wavelength): 874 | Emission wavelength ([3]; 1×10^−5 M, excited at maximum excitation wavelength of each dye): 630 nm
